# Results taken from paper PMC11372076, “A dual inhibitor of PIP5K1C and PIKfyve prevents SARS-CoV-2 entry into cells” (Experimental & Molecular Medicine, 2024).
# Legend:
# Type in all cases: cell-based
# VSV-G-pseudotyped virus = test system: VSV-G-pseudotyped virus
# RPE1 cells = assay: Autophagic flux assay (LC3-II turnover with bafilomycin A1); details: 1 μM, 2 h, normal growth media
# Source text: Fig. 2 UNI418 inhibits autophagy. a Western blot analysis of p62, LC3B-I, LC3B-II and GAPDH in the presence of UNC3230, apilimod and UNI418. b Immunofluorescence staining with LC3B (green) and p62 (red) antibodies upon treatment with UNC3230, apilimod and UNI418, and images within the white rectangular boxes are magnified on the right side. Scale bar, 20 µm. c The area of fluorescence intensity from immunofluorescence images (b) was quantified after UNC3230, apilimod and UNI418 treatments. d, e Quantification of autophagic flux under normal conditions and under HBSS-induced starvation conditions with or without UNI418 treatment. […]
# The whole cell extracts were prepared by lysis of harvested cells with M -PER Mammalian protein extraction reagent (Thermo Fisher Scientific). The protein concentrations were determined by Bradford protein assay (Bio- Rad). […] The images were obtained and quantified by Fusion solo ChemiDoc system (Vilber).
# Autophagic flux assay was analyzed essentially as previously described1,2.
# Briefly, RPE1 cells were treated with UNI418 (0, 0.5, or 1 µM) for 2 h with/without bafilomycin A1 to inhibit lysosomal degradation under normal growth media or HBSS. […] The LC3- II bands were quantified using Fusion Solo ChemiDoc system (Vilber) and normalized to GAPDH bands. […]
# cathepsin L = assay: Cathepsin L maturation by Western blot; details: Vero cells
smiles,measurement,setting,value
"c1ccc(-c2cc(Nc3nc(-c4ccncc4)nc4ccccc34)n[nH]2)cc1 [UNI418, N -(5-phenyl-1 H -pyrazol-3-yl)-2-(4-pyridinyl)-4-quinazolinamine]",pseudotyped virus entry,VSV-G-pseudotyped virus,unaffected
same,autophagic flux,RPE1 cells,markedly inhibited
same,proteolytic maturation of cathepsin L,cathepsin L,considerably inhibited
